Assay results taken from PubChem BioAssay AID1963854 (Molecular Pharmacology Branch, DTP, NCI, 2024).

System: 186277-243-T-J2-PDC complex spheroid viability
Experiment: Anticancer human tumor 186277-243-T-J2-PDC patient-derived colon adenocarcinoma cell line growth inhibition [POLQ]
Conditions: for IC50: curve of first compound; for viability, T/C: stronger effect = lower value
Method in brief: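 Complex spheroid viability model combining PDC tumour cells with endothelial (HUVEC) and MSC stromal cells. Novobiocin, ART-558 or RP6685 were tested singly and in combination with standard and investigational anticancer drugs. Each was titrated in half-log steps from near clinical Cmax, or from 10 microM where Cmax was unknown.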

[1] = second compound 0.0316 µM, first compound 0.0316 µM
[2] = second compound 0.0316 µM, first compound 0.1 µM
[3] = second compound 0.0316 µM, first compound 0.316 µM
[4] = second compound 0.0316 µM, first compound 1 µM
[5] = second compound 0.0316 µM, first compound 3.16 µM
[6] = second compound 0.0316 µM, first compound 10 µM
[7] = second compound 0.1 µM, first compound 0.0316 µM
[8] = second compound 0.1 µM, first compound 0.1 µM
[9] = second compound 0.1 µM, first compound 0.316 µM
[10] = second compound 0.1 µM, first compound 1 µM
[11] = second compound 0.1 µM, first compound 3.16 µM
[12] = second compound 0.1 µM, first compound 10 µM
[13] = second compound 0.316 µM, first compound 0.0316 µM
[14] = second compound 0.316 µM, first compound 0.1 µM
[15] = second compound 0.316 µM, first compound 0.316 µM
[16] = second compound 0.316 µM, first compound 1 µM
[17] = second compound 0.316 µM, first compound 3.16 µM
[18] = second compound 0.316 µM, first compound 10 µM
[19] = second compound 1 µM, first compound 0.0316 µM
[20] = second compound 1 µM, first compound 0.1 µM
[21] = second compound 1 µM, first compound 0.316 µM
[22] = second compound 1 µM, first compound 1 µM
[23] = second compound 1 µM, first compound 3.16 µM
[24] = second compound 1 µM, first compound 10 µM
[25] = second compound 3.16 µM, first compound 0.0316 µM
[26] = second compound 3.16 µM, first compound 0.1 µM
[27] = second compound 3.16 µM, first compound 0.316 µM
[28] = second compound 3.16 µM, first compound 1 µM
[29] = second compound 3.16 µM, first compound 3.16 µM
[30] = second compound 3.16 µM, first compound 10 µM
[31] = second compound 10 µM, first compound 0.0316 µM
[32] = second compound 10 µM, first compound 0.1 µM
[33] = second compound 10 µM, first compound 0.316 µM
[34] = second compound 10 µM, first compound 1 µM
[35] = second compound 10 µM, first compound 3.16 µM
[36] = second compound 10 µM, first compound 10 µM
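Also: spheroids exposed to compounds for seven days.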
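For viability, T/C in this document: 100% = DMSO vehicle control viability.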

SMILES: CC1COCCN1c1cc(C2(S(C)(=N)=O)CC2)nc(-c2ccnc3[nH]ccc23)n1 (stereo unspecified) + Cc1cccc(N(C)C(=O)C2C(O)CCN2c2nc(C)cc(C(F)(F)F)c2C#N)c1
- IC50 (second compound 0.0316 µM): 0.861 µM
- IC50 (second compound 0.1 µM): 0.8 µM
- IC50 (second compound 0.316 µM): 0.827 µM
- IC50 (second compound 1 µM): 0.842 µM
- IC50 (second compound 3.16 µM): 0.799 µM
- IC50 (second compound 10 µM): 0.784 µM
- viability, T/C [1]: 102%
- viability, T/C [2]: 102%
- viability, T/C [3]: 99%
- viability, T/C [4]: 42.6%
- viability, T/C [5]: 8.14%
- viability, T/C [6]: 6.1%
- viability, T/C [7]: 99.1%
- viability, T/C [8]: 103%
- viability, T/C [9]: 109%
- viability, T/C [10]: 37.1%
- viability, T/C [11]: 8.3%
- viability, T/C [12]: 5.32%
- viability, T/C [13]: 117%
- viability, T/C [14]: 105%
- viability, T/C [15]: 103%
- viability, T/C [16]: 39.6%
- viability, T/C [17]: 7.67%
- viability, T/C [18]: 6.8%
- viability, T/C [19]: 97%
- viability, T/C [20]: 104%
- viability, T/C [21]: 107%
- viability, T/C [22]: 40.7%
- viability, T/C [23]: 7.51%
- viability, T/C [24]: 5.6%
- viability, T/C [25]: 108%
- viability, T/C [26]: 108%
- viability, T/C [27]: 106%
- viability, T/C [28]: 35.9%
- viability, T/C [29]: 8.67%
- viability, T/C [30]: 6.42%
- viability, T/C [31]: 102%
- viability, T/C [32]: 111%
- viability, T/C [33]: 108%
- viability, T/C [34]: 34.7%
- viability, T/C [35]: 7.11%
- viability, T/C [36]: 5.36%

SMILES: CNCc1ccc(-c2[nH]c3cc(F)cc4c3c2CCNC4=O)cc1 + Nc1ccc(C#CCN(C(=O)Cc2ncc(C(F)(F)F)cc2C(F)(F)F)c2ccc(F)cc2)nn1
- IC50 (second compound 0.0316 µM): > 10 µM
- IC50 (second compound 0.1 µM): > 10 µM
- IC50 (second compound 0.316 µM): > 10 µM
- IC50 (second compound 1 µM): > 10 µM
- IC50 (second compound 3.16 µM): > 10 µM
- IC50 (second compound 10 µM): > 10 µM
- viability, T/C [1]: 121%
- viability, T/C [2]: 104%
- viability, T/C [3]: 129%
- viability, T/C [4]: 85.5%
- viability, T/C [5]: 112%
- viability, T/C [6]: 126%
- viability, T/C [7]: 101%
- viability, T/C [8]: 96.7%
- viability, T/C [9]: 108%
- viability, T/C [10]: 95.5%
- viability, T/C [11]: 125%
- viability, T/C [12]: 121%
- viability, T/C [13]: 100%
- viability, T/C [14]: 109%
- viability, T/C [15]: 103%
- viability, T/C [16]: 102%
- viability, T/C [17]: 105%
- viability, T/C [18]: 116%
- viability, T/C [19]: 92.4%
- viability, T/C [20]: 118%
- viability, T/C [21]: 95%
- viability, T/C [22]: 111%
- viability, T/C [23]: 98.7%
- viability, T/C [24]: 132%
- viability, T/C [25]: 96.9%
- viability, T/C [26]: 118%
- viability, T/C [27]: 100%
- viability, T/C [28]: 99.6%
- viability, T/C [29]: 111%
- viability, T/C [30]: 110%
- viability, T/C [31]: 108%
- viability, T/C [32]: 106%
- viability, T/C [33]: 106%
- viability, T/C [34]: 103%
- viability, T/C [35]: 88.2%
- viability, T/C [36]: 116%

SMILES: CCCS(=O)(=O)Nc1ccc(F)c(C(=O)c2c[nH]c3ncc(-c4ccc(Cl)cc4)cc23)c1F + Nc1ccc(C#CCN(C(=O)Cc2ncc(C(F)(F)F)cc2C(F)(F)F)c2ccc(F)cc2)nn1
- IC50 (second compound 0.0316 µM): > 10 µM
- IC50 (second compound 0.1 µM): > 10 µM
- IC50 (second compound 0.316 µM): > 10 µM
- IC50 (second compound 1 µM): > 10 µM
- IC50 (second compound 3.16 µM): > 10 µM
- IC50 (second compound 10 µM): 9.97 µM
- viability, T/C [1]: 89.6%
- viability, T/C [2]: 100%
- viability, T/C [3]: 88.9%
- viability, T/C [4]: 79.8%
- viability, T/C [5]: 113%
- viability, T/C [6]: 66.3%
- viability, T/C [7]: 91.5%
- viability, T/C [8]: 87.7%
- viability, T/C [9]: 86.8%
- viability, T/C [10]: 82.9%
- viability, T/C [11]: 91.5%
- viability, T/C [12]: 60.9%
- viability, T/C [13]: 89.7%
- viability, T/C [14]: 90.5%
- viability, T/C [15]: 89%
- viability, T/C [16]: 94.3%
- viability, T/C [17]: 85.8%
- viability, T/C [18]: 57.8%
- viability, T/C [19]: 100%
- viability, T/C [20]: 91.2%
- viability, T/C [21]: 109%
- viability, T/C [22]: 94.4%
- viability, T/C [23]: 87.8%
- viability, T/C [24]: 62.8%
- viability, T/C [25]: 120%
- viability, T/C [26]: 89.5%
- viability, T/C [27]: 85%
- viability, T/C [28]: 93.4%
- viability, T/C [29]: 88%
- viability, T/C [30]: 63.6%
- viability, T/C [31]: 108%
- viability, T/C [32]: 97.7%
- viability, T/C [33]: 85.7%
- viability, T/C [34]: 95.9%
- viability, T/C [35]: 85.1%
- viability, T/C [36]: 48.8%
